Measured values reported in PubChem BioAssay (NCI).
“And” between values parts separate entries of the source, which are not always exact repeats. Equal values may be shown once.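 Assay format: 96-well plates, 48-hour exposure. GI50 = concentration required for 50% inhibition of growth. TGI denotes the concentration required for complete inhibition of growth.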

Legend:
Assay in all cases: NCI anticancer screen, dose series, 48 h
A498 renal = tested on: A498 renal
ACHN renal = tested on: ACHN renal
CCRF-CEM leukemia = tested on: CCRF-CEM leukemia
EKVX NSCLC = tested on: EKVX NSCLC
HCT-116 colon = tested on: HCT-116 colon
NCI-H522 lung = tested on: NCI-H522 lung
PC-3 prostate = tested on: PC-3 prostate
SK-MEL-28 melanoma = tested on: SK-MEL-28 melanoma
SR leukemia = tested on: SR leukemia
UACC-62 melanoma = tested on: UACC-62 melanoma

SMILES	GI50 (A498 renal) [µM]	TGI (A498 renal)	GI50 (ACHN renal) [µM]	TGI (ACHN renal)	GI50 (CCRF-CEM leukemia) [µM]	TGI (CCRF-CEM leukemia)	GI50 (EKVX NSCLC) [µM]	TGI (EKVX NSCLC)	GI50 (HCT-116 colon) [µM]	TGI (HCT-116 colon)	GI50 (NCI-H522 lung) [µM]	TGI (NCI-H522 lung)	GI50 (PC-3 prostate) [µM]	TGI (PC-3 prostate)	GI50 (SK-MEL-28 melanoma) [µM]	TGI (SK-MEL-28 melanoma)	GI50 (SR leukemia) [µM]	TGI (SR leukemia) [µM]	GI50 (UACC-62 melanoma) [µM]	TGI (UACC-62 melanoma)
CC(=O)c1ccc2c(c1)N(CCCN1CCN(CCO)CC1)c1ccccc1S2	1.55	3.91 µM	2.98	11.4 µM	1.68	5.53 µM	4.83	21 µM	1.81	3.49 µM	1.67	3.64 µM	2.4	9.35 µM	1.73	3.23 µM	2.68	6.92	1.88	3.83 µM
CCCCCCNCCCNc1c2cc(OC)ccc2nc2cccc([N+](=O)[O-])c12	0.227	3.6 µM and 0.462 µM	0.159	1.54 µM and 0.535 µM	0.118	0.289 µM and 0.538 µM	1.35	0.427 µM and 3.32 µM	0.0384	0.155 µM and 1.01 µM	0.0174	0.104 µM and 0.0516 µM		0.56 µM and 1.02 µM	0.305	0.474 µM and 2 µM	0.121		0.186	0.305 µM and 0.412 µM
COc1cccc(CNc2ncnc3c2ncn3C2OC(CO)C(O)C2O)c1O (centres undefined)	0.205	2.21 µM	0.128			> 100 µM	0.559	> 59.6 µM	0.0659		0.0848		0.179	> 100 µM	1.55	> 100 µM	0.0651		0.347	> 31.8 µM
Cn1cc(-c2cc(-c3cn(C)c4ccc(Cl)cc34)[nH]n2)c2cc(Cl)ccc21	2.44	9.79 µM	3.23	12.8 µM	6.4	23.8 µM	3.15	15 µM	3.82	15.8 µM	1.75	3.84 µM	3.05	14.2 µM	4.8	79.6 µM	2.36	7.71	1.63	3.35 µM
Nc1nc(N)c2cc(Sc3ccc4ccccc4c3)ccc2n1		17.4 µM		5.15 µM		4.83 µM		14.5 µM		1.69 µM		3.36 µM		6.12 µM	1.54	2.9 µM	0.805	5		6.09 µM
Cc1cc(CCl)c(C)cc1CCl	1.79	3.96 µM	0.695	3.08 µM	0.351	5.61 µM	2.08	5.49 µM	1.48	6.58 µM	1.7	3.57 µM	2.25	10.1 µM	2.49	6.66 µM	0.114	8.83	1.93	7.59 µM
FC(F)(F)c1ccc(-c2nn3ncccc3c2-c2ccnc(Nc3ccc4c(c3)OCCO4)n2)cc1	4.68	> 25 µM	14.7	> 25 µM	10.8	> 25 µM	4.02	> 25 µM	8.15	> 25 µM	8.79	> 25 µM	7.32	> 25 µM	> 25	> 25 µM	> 25	> 25	10	> 25 µM
CC(C)(C)[Si](C)(C)OC1[C@@H](CNC(N)=O)O[C@@H](n2cnc3c(NC(=O)Nc4ccccc4)ncnc32)[C@H]1O[Si](C)(C)C(C)(C)C (some centres undefined)	1.56	8.04 µM	2.42	8.62 µM	1.06	2.48 µM	1.94	8.02 µM	0.78	1.45 µM	2.36	8.25 µM	0.814	1.99 µM	6.71	14 µM	0.977	1.99	6.19	12.6 µM
COc1cc(F)ccc1-c1cc(Nc2cc(CS(C)(=N)=O)ccn2)ncc1F (centres undefined)	0.0713	0.392 µM	0.0371	> 100 µM	0.0344	> 100 µM	0.153	8.63 µM	0.0293	> 100 µM	0.248	2.17 µM	0.0451	> 47.2 µM	0.102	5.44 µM	0.0174	1.29	0.0555	0.342 µM
CCOC(=O)c1sc(-c2ccc(OS(=O)(=O)C[C@]34CCC(CC3=O)C4(C)C)c(C=O)c2)nc1C	0.127	1.17 µM	1.3	3.71 µM	1.01	> 50 µM	1.3	> 50 µM			1.02	2.89 µM	1.4	> 50 µM	0.982	2.12 µM	0.66	3.27	0.745	1.76 µM
CSc1ncnc2c1ncn2CC(=O)C1CCC2C3CCC4=CC(=O)CCC4(C)C3CCC12C (centres undefined)		38.4 µM		23.8 µM		2.16 µM		68.3 µM		59.2 µM		24.5 µM		9.71 µM		28.2 µM		5.56		14 µM
CCCC(=O)N[C@H]1CCc2cc(OC)c(OC)c(OC)c2-c2ccc(SC)c(=O)cc21		0.39 µM		> 57.1 µM		> 100 µM		> 100 µM		0.176 µM		< 0.01 µM		> 100 µM		> 100 µM		> 100		> 100 µM
CC(=O)c1cccc(NC(=O)C(=O)c2c(O)c3ccccc3oc2=O)c1		> 100 µM		> 100 µM		> 100 µM		> 100 µM		> 100 µM		> 100 µM		> 100 µM		> 100 µM		> 100		> 100 µM
C/C(=C(/c1ccccc1)c1ccc(OCC(O)CNCCN2CCOCC2)cc1)c1ccccc1 (centres undefined)	1.52	10.1 µM	3.31	11.7 µM	3.48	11.3 µM	7.15	20.6 µM	1.86	4.02 µM	2.22	6.18 µM	2.78	10.2 µM	1.75	3.25 µM	1.66	4.02	1.93	3.82 µM
CN(Cc1ccc(F)cc1)c1ccc(CO)c(Cl)c1	0.0507	0.174 µM	28.9	> 100 µM	28.9	> 100 µM	26.9	> 100 µM	0.412	11.9 µM	26.5	97.3 µM	20.3	> 68.3 µM	31.3	> 100 µM	20.3	73.8	0.323	3.32 µM
CCCCCCCCCc1ccc(OCCOCCOCCOCCOCCOCCOCCOCCOCCO)cc1	0.665	3.8 µM	1.19	5.7 µM	0.305	2.04 µM	0.452	5.78 µM	0.374	1.59 µM	0.302	1.39 µM	0.0898	1.18 µM	0.895	2.02 µM	0.437	1.91	0.379	1.25 µM
O=[N+]([O-])c1cc([As](Br)c2ccc(O)c([N+](=O)[O-])c2)ccc1O		3.74 µM		3.77 µM		0.436 µM		3.86 µM		5.54 µM		0.45 µM		3.64 µM		3.31 µM		0.566		3 µM
ClCc1cccc(Cn2cnc3c(Cl)nc(Cl)nc32)c1	2.42	6.53 µM	1.91	3.72 µM	2.72	> 100 µM	1.74	3.35 µM	1.64	3.12 µM	2.72	5.32 µM	2.38	5.02 µM	2.34	5.38 µM	2.49	> 100	1.84	3.44 µM
CCSc1ccc([C@@H]2[C@@H](O)C(=O)N2c2cc(OC)c(OC)c(OC)c2)cc1	< 0.01	0.829 µM	0.0141	43.7 µM	< 0.0171	> 100 µM	0.0226	53 µM	< 0.011	3.06 µM	< 0.01	< 0.0119 µM	0.0146	79.7 µM	11.7	33 µM	< 0.01	17.4	< 0.01	20.1 µM
COc1ccc2c(c1)CN([C@@H](C)[C@H]1CC[C@H]3[C@@H]4CC[C@H]5C[C@@H](O)CC[C@]5(C)[C@H]4CC[C@]13C)CO2		3.45 µM		11.2 µM		6.19 µM		14.7 µM		7.22 µM		4.21 µM		7.46 µM		5.98 µM		2.61		3.88 µM
CCCc1nc(Cl)nc(Cl)c1Cl		7.53 µM		1.62 µM		0.0731 µM		2.63 µM		1.3 µM		1.26 µM		1.6 µM		2.05 µM		0.529		2.07 µM
COc1cc(OC)c2sc(-c3ccc(-n4cncc4-c4ccc(OC)c(OC)c4)cc3)nc2c1	2.15	> 100 µM	> 100	> 100 µM	> 100	> 100 µM			5.48	> 100 µM	5.27	76.9 µM	3.66	> 100 µM	> 100	> 100 µM	3.03	> 100	8.14	> 100 µM
COc1ccc(-c2nc(-c3nc4cc(Cl)c(F)cc4[nH]3)c3ccccn23)cc1	2.31	> 100 µM	7.34	> 100 µM	3.91	> 100 µM			6.09	> 100 µM	4.39	> 100 µM	4.58	> 100 µM	> 100	> 100 µM	3.87	> 100	6.05	> 100 µM
COc1ccc(C(=O)c2sc3nc(-c4ccccc4OC)ccc3c2N)cc1OC	3.38	> 100 µM	7.24	> 100 µM	4.07	> 100 µM			5.55	> 100 µM	2.5	8.89 µM	2.84	35.1 µM	> 100	> 100 µM	7.3	> 100	4.89	> 100 µM
CCOC(=O)c1ccc(NC(=O)NC2=NCCS2)cc1	0.34	2.24 µM	45.9	> 100 µM	0.433	> 100 µM			50.9	> 100 µM	0.352		0.451	> 100 µM	64.9	> 100 µM	0.973	> 100	7.96	> 100 µM
CC(C)(C)NCC(O)COc1c(Br)c(Br)c(Br)c2c1OC(C)(C)C2 (centres undefined)	1.85	3.33 µM	1.9	3.35 µM	1.97	3.76 µM	1.61	3.02 µM			1.99	3.81 µM	1.66	3.18 µM	1.81	3.29 µM	1.66	3.29	1.88	3.32 µM
CC(NC(=O)Cc1ccc(C(F)(F)P(=O)(OCc2ccc([N+](=O)[O-])o2)N(C)CCCCCl)cc1)c1ccc(OCC2CCCCC2)c(C(N)=O)c1 (centres undefined)	1.17	24 µM	8.77	39.3 µM			4.92	16.7 µM	1.93	4.11 µM	3.86	10.2 µM	6.91	> 34.8 µM	12.2	25.9 µM	1.76	5.03	4.97	10.2 µM
CO[C@H]1/C=C/O[C@@]2(C)Oc3c(C)c(O)c4c(O)c(c(/C=N/N5CCN(C)CC5)c(O)c4c3C2=O)NC(=O)/C(C)=C\C=C\[C@H](C)[C@H](O)[C@@H](C)[C@@H](O)[C@@H](C)[C@H](OC(C)=O)[C@@H]1C		> 100 µM		> 100 µM		81.8 µM		> 100 µM		> 100 µM				> 100 µM		> 100 µM		52.6		> 100 µM
